This note sets out measurements from ChEMBL document CHEMBL1155651, “New prenylated anthraquinones and xanthones from Vismia guineensis” (2000).

What all share (type): functional, PBL
Assay [1] is described as follows: Antimitotic activity in human peripheral blood lymphocytes assessed as mitotic index at 1 uM.
Assay [2] is described as follows: Antimitotic activity in human peripheral blood lymphocytes assessed as mitotic index at 25 uM.
Assay [3] can be described thus: Antimitotic activity in human peripheral blood lymphocytes assessed as mitotic index at 0.5 uM.

On to `C[C@]12CC[C@@H]3c4ccc(OC(=O)N(CCCl)CCCl)cc4CC[C@H]3[C@@H]1CC[C@@H]2O` [ESTRAMUSTINE], for which the Activity in assay [1] was 78.7%.
On the same count and under the same terms, under `CN[C@H]1CCc2cc(OC)c(OC)c(OC)c2-c2ccc(OC)c(=O)cc21` [DEMECOLCINE] stands 70.1%.
As to `COC(C)(C)CCC/C(C)=C/COc1cc(O)c2c(c1)Cc1cc(C)cc(O)c1C2=O`, the Activity in assay [2] is 49.9%; in assay [1] it was 48.7%; in assay [3], 47.4%.
